Where a name gives a salt, the structure may show the parent alone.
Tests used:
HCV NS3 helicase = biological target: T1, HCV NS3 helicase (Hepatitis C virus genotype 1a, UniProt P27958); assay: fluorescence helicase assay based on FRET; assay type: biochemical; settings: dsRNA substrate labeled with Alexa Fluor 700 and Black Hole Quencher 3; 240 nM NS3 helicase; 30 min at 37 °C; triplicate; read-out: IC50 against NS3 helicase
T1 construct: HCV NS3 protein with helicase activity was expressed and purified as previously described; made in house
T1 sequence (P27958 1027-1657): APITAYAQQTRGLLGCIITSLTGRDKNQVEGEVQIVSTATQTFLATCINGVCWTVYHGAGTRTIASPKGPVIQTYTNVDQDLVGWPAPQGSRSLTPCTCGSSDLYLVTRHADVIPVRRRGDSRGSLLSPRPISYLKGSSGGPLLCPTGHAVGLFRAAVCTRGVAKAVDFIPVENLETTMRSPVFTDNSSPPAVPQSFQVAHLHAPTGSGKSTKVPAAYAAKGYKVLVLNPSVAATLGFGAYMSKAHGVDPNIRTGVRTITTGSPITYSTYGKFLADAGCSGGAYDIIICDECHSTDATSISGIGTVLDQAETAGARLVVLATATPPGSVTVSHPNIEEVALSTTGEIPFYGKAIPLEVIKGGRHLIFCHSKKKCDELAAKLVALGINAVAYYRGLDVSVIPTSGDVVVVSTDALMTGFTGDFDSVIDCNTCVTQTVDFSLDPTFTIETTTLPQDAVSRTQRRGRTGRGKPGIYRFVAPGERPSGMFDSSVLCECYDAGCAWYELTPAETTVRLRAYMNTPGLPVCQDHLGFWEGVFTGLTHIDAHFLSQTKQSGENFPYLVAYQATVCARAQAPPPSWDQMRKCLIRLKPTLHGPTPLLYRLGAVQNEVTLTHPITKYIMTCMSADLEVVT
Experimental: For enzymatic inhibition, we used the fluorescence helicase assay based on fluorescence resonance energy transfer (FRET) to examine NS3 helicase inhibition by Compounds 1–4. […] The measured values in triplicate for each concentration of Compounds 1–4 were averaged and divided by the mean value from the negative control sample that contains DMSO instead of Compounds 1–4 to show the NS3 helicase activity as a percentage.
The fluorescence helicase assay based on FRET was conducted as we previously described, except that we used a DNA capture strand rather than an RNA capture strand for which the sequence was complementary to that of the quencher strand. HCV NS3 protein with helicase activity was expressed and purified as previously described. In the assay, when NS3 helicase unwinds the dsRNA substrate, the DNA capture strand binds to the unwound single-stranded RNA (ssRNA) substrate labeled with Black Hole Quencher 3 and prevents the ssRNA substrate from reannealing to the complementary ssRNA substrate labeled with Alexa Fluor 700. […] Thus, the NS3 helicase activity can be monitored by the real-time measurement of the fluorescence intensity of Alexa Fluor 700 through 30 min incubation at 37 °C by using a SpectraMax Gemini XS microplate reader (Molecular Devices, Sunnyvale, CA, USA). The reaction mixture contained 25 mM MOPS-NaOH (pH 6.5), 3 mM MgCl2, 2 mM dithiothreitol, 4 U RNasin (Promega, Madison, WI, USA), 50 nM dsRNA substrate, 400 nM DNA capture strand, 5 mM ATP, a serial dilution of Compounds 1–4 dissolved in DMSO, and 240 nM NS3 helicase in a total reaction volume of 20 μL. The NS3 helicase activity was calculated as the initial reaction velocity relative to that of the control (in the absence of Compounds 1–4 but in the presence of DMSO). The IC50 value was calculated using KaleidaGraph (Synergy Software, Reading, PA, USA) by fitting plots of relative helicase activity (%) vs. [I] using Equation (1):(1) % Activity = 100/1 + ([I]/IC50)^h where h is the Hill coefficient, and [I] is the inhibitor concentration.

[1] = test system: HCV subgenomic replicon cell line Huh7/Rep-Feo (genotype 1b, N strain); assay: HCV replicon assay (luciferase); assay type: cell-based; settings: Hepatitis C virus, Huh-7, 72 h post-treatment, luciferase activity, read-out: EC50 (50% effective concentration), suppression of HCV replication
Experimental: (§1) Further, we investigated the effect of Compounds 2 and 3 on both viral replication and cell growth in the HCV subgenomic replicon cell line Huh7/Rep-Feo (genotype 1b, N strain). […] This was likely due to its low membrane permeability caused by the negatively charged sulfate group within the molecule in aqueous solution.
The Huh7/Rep-Feo cell line harboring the subgenomic replicon RNA of the N strain (genotype 1b) was seeded at 2 × 10^4 cells per well in a 48-well plate and incubated at 37 °C for 24 h. A serial dilution of Compounds 2 and 3 was added to each well of the plate. The treated cells were harvested 72 h post-treatment and lysed in cell culture lysis reagent (Promega, Madison, WI, USA). Luciferase activity in the harvested cells was estimated with a luciferase assay system (Promega). The resulting luminescence was detected by a Luminescencer-JNR AB-2100 (ATTO, Tokyo, Japan). The anti-HCV activity was calculated as the intensity of the luminescence relative to that of the control (in the absence of Compounds 2 and 3 but in the presence of DMSO).

Cytotoxicity assay (MTS) = assay type: cell-based; settings: human, Huh7/Rep-Feo cells, 72 h post-treatment, read-out: CC50 (50% cytotoxicity concentration)
Experimental: as §1
Huh7/Rep-Feo cells were seeded at a density of 1 × 10^4 cells per well in a 96-well plate and then incubated at 37 °C for 24 h. Compounds 2 and 3 were added to the culture medium to yield various concentrations and were then harvested 72 h post-treatment. Cell viability was determined by a dimethyl thiazolcarboxymethoxyphenyl sulfophenyltetrazolium (MTS) assay using a CellTiter 96 aqueous one-solution cell proliferation assay kit (Promega), according to the manufacturer’s protocol.

[2] = test system: hepatitis C virus (HCV) NS3 helicase; settings: authentic molecule; read-out: IC50 against NS3 helicase; cited from earlier work

Row | Compound | IC50 (HCV NS3 helicase) | EC50 [1] | CC50 at 72 h (Cytotoxicity assay (MTS)) | IC50 [2]
1 | Cc1cc(O)c2c(=O)c3c(O)c(-c4c(OS(=O)(=O)O)cc(O)c5c(=O)c6c(O)cc(C)oc-6cc45)c(OS(=O)(=O)O)cc3cc-2o1 [Compound 3] | 7 µM | 67 µM | 70 µM | 
2 | Cc1cc(O)c2c(=O)c3c(O)cc(OS(=O)(=O)O)cc3cc-2o1 [Compound 1] | 71 µM |  |  | 
3 | CCCc1cc(O)c2c(=O)c3c(O)cc(OS(=O)(=O)O)cc3cc-2o1 [Compound 2] | 95 µM | 57 µM | 52 µM | 
4 | CCCc1cc(O)c2c(=O)c3c(O)c(-c4c(OS(=O)(=O)O)cc(O)c5c(=O)c6c(O)cc(C)oc-6cc45)c(OS(=O)(=O)O)cc3cc-2o1 [Compound 4] | 5 µM |  |  | 
5 | CC(C)CCC[C@@H](C)[C@H]1CC[C@H]2[C@@H]3CC=C4C[C@@H](OS(=O)(=O)O)CC[C@]4(C)[C@H]3CC[C@]12C [cholesterol sulfate] |  |  |  | 1.7 ± 0.2 µM

Source: PMC5408263, “Four Aromatic Sulfates with an Inhibitory Effect against HCV NS3 Helicase from the Crinoid Alloeocomatella polycladia” (Marine Drugs, 2017)
